# Experimental data taken from patent US9365572B2, “PI3K and/or mTOR inhibitor” (XUANZHU PHARMA CO., LTD., priority 2012, dated 2016).
# Experiments:
# [1] = biological target: AXL (Homo sapiens (Human), UniProt P30530); assay: Kinase selectivity, Mobility shift assay; format: biochemical
# Protocol: (§1) Object: In this assay, the inhibitory activity of the test substance on the kinases listed in Table 3 was determined, and therefore the selectivity of the present compound was determined.
# (§2) Except for the BRAF V600E kinase in Table 3, the Mobility shift assay was used for other kinases.
# (§3) 1. Preparation of Agents:
# (§4) • 1.1 1-fold kinase buffer without MnCl2: 50 mM HEPES, pH 7.5, 0.0015% Brij-35, 10 mM MgCl2, 2 mM DTT. • 1.2 1-fold kinase buffer with MnCl2: 50 mM HEPES, pH 7.5, 0.0015% Brij-35, 10 mM MgCl2, 10 mM MnCl2, 2 mM DTT. • 1.3 Termination solution: 100 mM HEPES, pH 7.5, 0.0015% Brij-35, 0.2% Coating Reagent#3, 50 mM EDTA. • 1.4 2.5-fold kinase solution: The kinase was added to the 1-fold kinase buffer to form a 2.5-fold kinase solution. • 1.5 2.5-fold substrate solution: FAM fluorescence-labelled polypeptide and ATP were added to the 1-fold kinase buffer to form a 2.5-fold substrate solution. 2. Preparation of 5-fold compound
# (§5) The final test concentration of the compound was 10 μM at maximum. Firstly, a 50-fold concentration (i.e. 500 μM) was prepared with 100% DMSO. The compound was diluted with 100% DMSO by 5 folds at 5 concentrations (successively 500 μM, 100 μM, 20 μM, 4 μM, and 0.8 μM). After diluting with 1-fold kinase buffer by 10 folds, 5 μl of the samples were transferred to a 384-well reaction plate. Two negative control wells and two positive control wells were set at each line respectively. Replication was made in a 96-well plate in five concentrations of 5-fold compound. 10% DMSO was added to the positive control well, and 5 μl of EDTA (250 mM) was added to the negative control well.
# (§6) • 3.1 To the 384-well reaction plate was added 5-fold compound dissolved in 10% DMSO at 5 μl/well. • 3.2 To the 384-well reaction plate was added 2.5-fold kinase solution at 10 μl/well. […] 4. […] 2. […] 3. […] 4.
# [2] = biological target: ERK2 (Homo sapiens (Human), UniProt P28482); assay: Kinase selectivity, Mobility shift assay; format: biochemical
# Protocol: as §1, §2, §3, §4, §5, §6
# [3] = biological target: EphA1 (Homo sapiens (Human), UniProt P21709); assay: Kinase selectivity, Mobility shift assay; format: biochemical
# Protocol: as §1, §2, §3, §4, §5, §6
# [4] = biological target: FLT3 (Homo sapiens (Human), UniProt P36888); assay: Kinase selectivity, Mobility shift assay; format: biochemical
# Protocol: as §1, §2, §3, §4, §5, §6
# [5] = biological target: IRAK4 (Homo sapiens (Human), UniProt Q9NWZ3); assay: Kinase selectivity, Mobility shift assay; format: biochemical
# Protocol: as §1, §2, §3, §4, §5, §6
# [6] = biological target: LCK (Homo sapiens (Human), UniProt P06239); assay: Kinase selectivity, Mobility shift assay; format: biochemical
# Protocol: as §1, §2, §3, §4, §5, §6
# [7] = biological target: PKACa (Homo sapiens (Human), UniProt P17612); assay: Kinase selectivity, Mobility shift assay; format: biochemical
# Protocol: as §1, §2, §3, §4, §5, §6
# [8] = biological target: RSK2 (Homo sapiens (Human), UniProt P51812); assay: Kinase selectivity, Mobility shift assay; format: biochemical
# Protocol: as §1, §2, §3, §4, §5, §6
# [9] = biological target: TAOK2 (Homo sapiens (Human), UniProt Q9UL54); assay: Kinase selectivity, Mobility shift assay; format: biochemical
# Protocol: as §1, §2, §3, §4, §5, §6
# [10] = biological target: Adrenergic α2A (Homo sapiens (Human), UniProt P08913); assay: Radioligand binding assay No. 203620; settings: test substance 10 μM, read-out: Inhibitory rate (%), Adrenergic α2A
# [11] = biological target: Androgen (Testosterone) AR (Rattus norvegicus (Rat), UniProt P15207); assay: Radioligand binding assay No. 285010; settings: test substance 10 μM, read-out: Inhibitory rate (%), Androgen (Testosterone) AR
# [12] = biological target: Bradykinin B1 (Homo sapiens (Human), UniProt P46663); assay: Radioligand binding assay No. 212510; settings: test substance 10 μM, read-out: Inhibitory rate (%), Bradykinin B1
# [13] = tested on: Calcium Channel L-Type, Benzothiazepine; assay: Radioligand binding assay No. 214510; settings: test substance 10 μM; rat
# [14] = tested on: Calcium Channel L-Type, Dihydropyridine; assay: Radioligand binding assay No. 214600; settings: test substance 10 μM; rat
# [15] = biological target: Calcium Channel N-Type (Rattus norvegicus (Rat), UniProt Q02294); assay: Radioligand binding assay No. 216000; settings: test substance 10 μM, read-out: Inhibitory rate (%), Calcium Channel N-Type
# [16] = biological target: Dopamine D2S (Homo sapiens (Human), UniProt P14416); assay: Radioligand binding assay No. 219700; settings: test substance 10 μM, read-out: Inhibitory rate (%), Dopamine D2S
# [17] = biological target: GABAB1A (Homo sapiens (Human), UniProt Q9UBS5); assay: Radioligand binding assay No. 228610; settings: test substance 10 μM, read-out: Inhibitory rate (%), GABAB1A
# [18] = tested on: Glutamate, NMDA, Agonism; assay: Radioligand binding assay No. 232810; settings: test substance 10 μM; rat
# [19] = biological target: Glutamate, NMDA, Glycine (Rattus norvegicus (Rat), UniProt P35439); assay: Radioligand binding assay No. 232910; settings: test substance 10 μM, read-out: Inhibitory rate (%), Glutamate, NMDA, Glycine
# [20] = tested on: Glutamate, NMDA, Phencyclidine; assay: Radioligand binding assay No. 233000; settings: test substance 10 μM; rat
# [21] = biological target: Histamine H2 (Homo sapiens (Human), UniProt P25021); assay: Radioligand binding assay No. 239710; settings: test substance 10 μM, read-out: Inhibitory rate (%), Histamine H2
# [22] = tested on: ImidazolineI2, Central; assay: Radioligand binding assay No. 241000; settings: test substance 10 μM; rat
# [23] = biological target: Leukotriene, Cysteinyl CysLT1 (Homo sapiens (Human), UniProt Q9Y271); assay: Radioligand binding assay No. 250460; settings: test substance 10 μM, read-out: Inhibitory rate (%), Leukotriene, Cysteinyl CysLT1
# [24] = biological target: Muscarinic M2 (Homo sapiens (Human), UniProt P08172); assay: Radioligand binding assay No. 252710; settings: test substance 10 μM, read-out: Inhibitory rate (%), Muscarinic M2
# [25] = biological target: Muscarinic M3 (Homo sapiens (Human), UniProt P20309); assay: Radioligand binding assay No. 252810; settings: test substance 10 μM, read-out: Inhibitory rate (%), Muscarinic M3
# Chain of Bradykinin B1 (P46663 whole entry): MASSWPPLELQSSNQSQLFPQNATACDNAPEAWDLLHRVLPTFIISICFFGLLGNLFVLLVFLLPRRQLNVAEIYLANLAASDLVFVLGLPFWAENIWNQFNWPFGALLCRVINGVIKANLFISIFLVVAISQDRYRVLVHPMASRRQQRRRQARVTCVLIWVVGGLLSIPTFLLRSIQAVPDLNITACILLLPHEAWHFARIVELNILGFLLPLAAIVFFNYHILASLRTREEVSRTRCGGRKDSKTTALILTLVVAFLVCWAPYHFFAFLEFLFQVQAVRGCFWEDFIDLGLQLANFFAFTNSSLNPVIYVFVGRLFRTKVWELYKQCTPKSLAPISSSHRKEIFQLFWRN
# Chain of Adrenergic α2A (P08913 whole entry): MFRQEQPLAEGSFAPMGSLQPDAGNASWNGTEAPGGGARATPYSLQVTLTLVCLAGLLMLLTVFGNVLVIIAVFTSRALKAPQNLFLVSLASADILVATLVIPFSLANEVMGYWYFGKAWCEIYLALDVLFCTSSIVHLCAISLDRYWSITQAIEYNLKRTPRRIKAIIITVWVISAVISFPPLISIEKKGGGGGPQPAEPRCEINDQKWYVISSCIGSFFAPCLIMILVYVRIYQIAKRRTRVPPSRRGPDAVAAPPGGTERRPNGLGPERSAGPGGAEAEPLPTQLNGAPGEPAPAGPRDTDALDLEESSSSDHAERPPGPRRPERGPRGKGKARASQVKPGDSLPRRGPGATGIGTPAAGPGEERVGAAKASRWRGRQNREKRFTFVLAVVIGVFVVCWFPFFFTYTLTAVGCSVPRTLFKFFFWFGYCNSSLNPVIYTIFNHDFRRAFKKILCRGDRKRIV
# Chain of Dopamine D2S (P14416 other isoform, or with tags, fused parts or gaps): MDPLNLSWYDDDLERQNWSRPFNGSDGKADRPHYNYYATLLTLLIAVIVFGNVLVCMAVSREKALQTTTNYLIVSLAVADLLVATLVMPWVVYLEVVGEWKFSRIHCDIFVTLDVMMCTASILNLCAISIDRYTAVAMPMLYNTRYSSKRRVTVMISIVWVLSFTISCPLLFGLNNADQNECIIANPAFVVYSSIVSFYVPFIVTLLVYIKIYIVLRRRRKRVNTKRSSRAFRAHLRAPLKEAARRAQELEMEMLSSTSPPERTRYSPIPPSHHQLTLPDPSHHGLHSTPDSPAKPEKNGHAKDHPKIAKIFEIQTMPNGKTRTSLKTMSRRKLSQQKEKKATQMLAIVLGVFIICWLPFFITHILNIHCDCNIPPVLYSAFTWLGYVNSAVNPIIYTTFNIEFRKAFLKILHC
# Chain of GABAB1A (Q9UBS5 15-961): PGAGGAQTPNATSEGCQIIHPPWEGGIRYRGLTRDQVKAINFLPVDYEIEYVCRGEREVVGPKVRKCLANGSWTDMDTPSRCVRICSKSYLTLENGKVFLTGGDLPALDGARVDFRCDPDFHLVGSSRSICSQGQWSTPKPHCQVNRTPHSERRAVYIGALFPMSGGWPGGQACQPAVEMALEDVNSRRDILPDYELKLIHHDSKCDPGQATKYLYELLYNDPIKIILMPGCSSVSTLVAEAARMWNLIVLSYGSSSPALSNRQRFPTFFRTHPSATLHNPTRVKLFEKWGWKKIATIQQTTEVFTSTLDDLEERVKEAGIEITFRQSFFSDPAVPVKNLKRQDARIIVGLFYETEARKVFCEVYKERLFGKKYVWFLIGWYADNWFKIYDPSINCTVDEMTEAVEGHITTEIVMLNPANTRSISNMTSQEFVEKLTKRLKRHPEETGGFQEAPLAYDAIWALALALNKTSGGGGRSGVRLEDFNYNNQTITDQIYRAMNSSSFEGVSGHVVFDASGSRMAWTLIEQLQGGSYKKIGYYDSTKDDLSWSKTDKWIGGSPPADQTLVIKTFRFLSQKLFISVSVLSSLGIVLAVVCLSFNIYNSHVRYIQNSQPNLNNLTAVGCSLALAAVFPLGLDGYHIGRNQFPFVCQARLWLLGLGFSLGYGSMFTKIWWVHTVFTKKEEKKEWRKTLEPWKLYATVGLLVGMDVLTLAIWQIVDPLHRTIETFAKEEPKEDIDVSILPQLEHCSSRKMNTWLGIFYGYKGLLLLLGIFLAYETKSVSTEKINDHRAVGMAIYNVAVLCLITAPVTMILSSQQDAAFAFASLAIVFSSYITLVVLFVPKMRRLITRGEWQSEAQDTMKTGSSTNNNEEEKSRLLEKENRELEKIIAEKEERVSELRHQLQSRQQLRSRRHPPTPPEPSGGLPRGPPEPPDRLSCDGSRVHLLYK
# Chain of IRAK4 (Q9NWZ3 whole entry, species assumed): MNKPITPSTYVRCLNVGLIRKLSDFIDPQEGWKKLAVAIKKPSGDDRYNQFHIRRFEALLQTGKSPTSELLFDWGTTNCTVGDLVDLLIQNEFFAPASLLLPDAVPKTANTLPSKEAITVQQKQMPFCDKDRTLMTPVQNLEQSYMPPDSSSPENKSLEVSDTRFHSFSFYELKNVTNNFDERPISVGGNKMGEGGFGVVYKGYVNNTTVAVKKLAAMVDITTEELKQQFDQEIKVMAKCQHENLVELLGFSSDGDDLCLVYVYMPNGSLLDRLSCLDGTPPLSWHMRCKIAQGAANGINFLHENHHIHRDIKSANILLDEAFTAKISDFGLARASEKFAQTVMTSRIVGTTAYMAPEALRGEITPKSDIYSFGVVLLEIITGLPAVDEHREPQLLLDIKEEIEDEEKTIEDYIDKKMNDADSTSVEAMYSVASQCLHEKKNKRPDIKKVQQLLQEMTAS
# Chain of Histamine H2 (P25021 whole entry): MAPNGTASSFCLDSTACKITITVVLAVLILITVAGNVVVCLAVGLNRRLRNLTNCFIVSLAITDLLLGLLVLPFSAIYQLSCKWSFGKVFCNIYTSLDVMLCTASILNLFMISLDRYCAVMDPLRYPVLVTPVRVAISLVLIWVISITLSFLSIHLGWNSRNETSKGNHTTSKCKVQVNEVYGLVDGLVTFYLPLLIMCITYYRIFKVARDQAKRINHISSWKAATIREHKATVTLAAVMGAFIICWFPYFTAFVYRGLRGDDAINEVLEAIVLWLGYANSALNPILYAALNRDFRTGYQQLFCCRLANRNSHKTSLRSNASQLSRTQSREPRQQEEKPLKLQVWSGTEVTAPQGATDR
# Chain of TAOK2 (Q9UL54 whole entry, species assumed): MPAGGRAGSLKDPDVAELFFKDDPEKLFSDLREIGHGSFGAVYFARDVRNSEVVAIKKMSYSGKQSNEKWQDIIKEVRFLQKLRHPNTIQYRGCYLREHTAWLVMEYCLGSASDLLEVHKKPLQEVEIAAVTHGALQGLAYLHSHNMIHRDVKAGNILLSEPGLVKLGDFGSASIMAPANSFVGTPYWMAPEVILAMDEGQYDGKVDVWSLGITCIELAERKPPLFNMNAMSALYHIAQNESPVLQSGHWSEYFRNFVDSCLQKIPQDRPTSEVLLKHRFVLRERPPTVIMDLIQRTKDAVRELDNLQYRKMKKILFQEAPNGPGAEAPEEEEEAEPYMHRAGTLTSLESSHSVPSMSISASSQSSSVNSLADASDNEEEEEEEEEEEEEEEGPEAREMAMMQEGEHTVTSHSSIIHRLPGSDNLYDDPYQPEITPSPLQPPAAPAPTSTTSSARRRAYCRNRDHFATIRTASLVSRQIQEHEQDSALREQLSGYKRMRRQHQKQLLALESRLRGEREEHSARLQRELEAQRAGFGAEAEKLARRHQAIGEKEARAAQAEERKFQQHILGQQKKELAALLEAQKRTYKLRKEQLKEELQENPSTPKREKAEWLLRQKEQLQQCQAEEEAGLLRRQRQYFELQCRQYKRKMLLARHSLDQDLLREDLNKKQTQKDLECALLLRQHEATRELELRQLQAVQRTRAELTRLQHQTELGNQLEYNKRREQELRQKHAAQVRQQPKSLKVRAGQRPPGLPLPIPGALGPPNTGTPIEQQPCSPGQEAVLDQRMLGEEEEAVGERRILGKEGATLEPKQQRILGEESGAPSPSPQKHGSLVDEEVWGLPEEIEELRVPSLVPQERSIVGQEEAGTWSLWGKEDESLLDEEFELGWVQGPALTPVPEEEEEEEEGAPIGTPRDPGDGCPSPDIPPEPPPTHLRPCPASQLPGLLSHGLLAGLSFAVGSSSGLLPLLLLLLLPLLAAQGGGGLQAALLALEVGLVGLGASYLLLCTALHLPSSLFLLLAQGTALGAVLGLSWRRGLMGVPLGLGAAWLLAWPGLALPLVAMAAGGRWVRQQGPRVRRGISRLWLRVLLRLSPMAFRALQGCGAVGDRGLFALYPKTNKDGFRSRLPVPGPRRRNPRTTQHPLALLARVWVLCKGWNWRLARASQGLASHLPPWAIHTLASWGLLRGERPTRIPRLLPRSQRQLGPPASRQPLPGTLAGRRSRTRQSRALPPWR
# Chain of LCK (P06239 whole entry, species assumed): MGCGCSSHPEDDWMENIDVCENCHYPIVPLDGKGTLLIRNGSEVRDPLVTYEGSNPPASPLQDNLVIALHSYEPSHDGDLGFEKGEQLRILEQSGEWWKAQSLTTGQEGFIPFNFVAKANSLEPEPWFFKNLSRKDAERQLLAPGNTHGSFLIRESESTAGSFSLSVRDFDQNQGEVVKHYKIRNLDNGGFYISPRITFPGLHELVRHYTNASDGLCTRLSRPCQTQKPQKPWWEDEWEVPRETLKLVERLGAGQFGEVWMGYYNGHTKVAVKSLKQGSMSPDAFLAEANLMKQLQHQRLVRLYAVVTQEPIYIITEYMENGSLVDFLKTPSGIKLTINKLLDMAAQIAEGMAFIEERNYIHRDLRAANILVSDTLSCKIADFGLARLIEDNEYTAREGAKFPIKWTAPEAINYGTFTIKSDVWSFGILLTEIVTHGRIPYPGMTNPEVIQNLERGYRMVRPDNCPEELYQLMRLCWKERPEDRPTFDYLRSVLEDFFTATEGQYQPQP
smiles,measurement,setting,value
"Nc1ccc(-c2ccc3ncc4c(=O)[nH]c(=O)n(-c5cccc(C(F)(F)F)c5)c4c3n2)cn1 [Compound 5, 9-(6-aminopyridin-3-yl)-1-(3-(trifluoromethyl)phenyl)pyrimido[5,4-c][1,5]naphthyridine-2,4(1H,3H)-dione]",IC50,[1],2140 nM
same,IC50,[2],> 10000 nM
same,IC50,[3],1470 nM
same,IC50,[4],6250 nM
same,IC50,[5],> 10000 nM
same,IC50,[6],1130 nM
same,IC50,[7],> 10000 nM
same,IC50,[8],> 10000 nM
same,IC50,[9],> 10000 nM
same,inhibition at 10 µM,[10],19%
same,inhibition at 10 µM,[11],30%
same,inhibition at 10 µM,[12],0%
same,"Inhibitory rate (%), Calcium Channel L-Type, Benzothiazepine",[13],15%
same,"Inhibitory rate (%), Calcium Channel L-Type, Dihydropyridine",[14],56%
same,inhibition at 10 µM,[15],-22%
same,inhibition at 10 µM,[16],14%
same,inhibition at 10 µM,[17],15%
same,"Inhibitory rate (%), Glutamate, NMDA, Agonism",[18],29%
same,inhibition at 10 µM,[19],29%
same,"Inhibitory rate (%), Glutamate, NMDA, Phencyclidine",[20],8%
same,inhibition at 10 µM,[21],-2%
same,"Inhibitory rate (%), ImidazolineI2, Central",[22],0%
same,inhibition at 10 µM,[23],-1%
same,inhibition at 10 µM,[24],-4%
same,inhibition at 10 µM,[25],13%
